From ChEMBL document CHEMBL5291721, “A preclinical secondary pharmacology resource illuminates target-adverse drug reaction associations of marketed drugs” (Nat Commun, 2023)

How the values were obtained:
[1] = target: T1, Alpha-1A adrenergic receptor (Homo sapiens, UniProt P35348); assay type: functional, cell-based
T1 sequence (P35348 whole entry): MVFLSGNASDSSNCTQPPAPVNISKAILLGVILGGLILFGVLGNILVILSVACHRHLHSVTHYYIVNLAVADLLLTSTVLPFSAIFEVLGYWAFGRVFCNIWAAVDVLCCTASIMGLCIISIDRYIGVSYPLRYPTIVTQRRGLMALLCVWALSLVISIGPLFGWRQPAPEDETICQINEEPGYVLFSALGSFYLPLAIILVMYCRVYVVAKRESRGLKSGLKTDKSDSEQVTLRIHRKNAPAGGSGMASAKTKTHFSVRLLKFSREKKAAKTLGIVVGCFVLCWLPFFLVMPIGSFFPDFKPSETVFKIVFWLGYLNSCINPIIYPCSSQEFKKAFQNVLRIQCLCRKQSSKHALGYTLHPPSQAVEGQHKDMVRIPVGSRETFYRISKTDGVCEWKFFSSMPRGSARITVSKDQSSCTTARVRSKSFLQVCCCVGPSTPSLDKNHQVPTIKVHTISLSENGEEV

[2] = target: Vasopressin V2 receptor (Homo sapiens, UniProt P30518)
[3] = target: Cannabinoid receptor 1 (Homo sapiens, UniProt P21554)
[4] = target: D(1A) dopamine receptor (Homo sapiens, UniProt P21728); assay type: functional, cell-based
[5] = target: Melanocortin receptor 4 (Homo sapiens, UniProt P32245)
[6] = target: T2, Neuropeptide Y receptor type 1 (Homo sapiens, UniProt P25929)
T2 sequence (P25929 whole entry): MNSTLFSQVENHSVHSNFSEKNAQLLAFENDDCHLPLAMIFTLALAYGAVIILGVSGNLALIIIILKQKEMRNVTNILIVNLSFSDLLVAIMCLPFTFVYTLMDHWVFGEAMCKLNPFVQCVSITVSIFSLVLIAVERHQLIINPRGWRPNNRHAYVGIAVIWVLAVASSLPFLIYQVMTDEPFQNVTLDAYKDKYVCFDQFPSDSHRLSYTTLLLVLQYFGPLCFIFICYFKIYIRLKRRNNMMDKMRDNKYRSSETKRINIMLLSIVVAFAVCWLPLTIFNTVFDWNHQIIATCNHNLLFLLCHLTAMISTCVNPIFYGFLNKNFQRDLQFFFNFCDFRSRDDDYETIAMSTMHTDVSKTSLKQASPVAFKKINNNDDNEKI

[7] = target: 3',5'-cyclic-AMP phosphodiesterase 4D (Homo sapiens, UniProt Q08499); assay type: functional
[8] = target: T3, Progesterone receptor (Homo sapiens, UniProt P06401); assay type: functional
T3 sequence (P06401 whole entry): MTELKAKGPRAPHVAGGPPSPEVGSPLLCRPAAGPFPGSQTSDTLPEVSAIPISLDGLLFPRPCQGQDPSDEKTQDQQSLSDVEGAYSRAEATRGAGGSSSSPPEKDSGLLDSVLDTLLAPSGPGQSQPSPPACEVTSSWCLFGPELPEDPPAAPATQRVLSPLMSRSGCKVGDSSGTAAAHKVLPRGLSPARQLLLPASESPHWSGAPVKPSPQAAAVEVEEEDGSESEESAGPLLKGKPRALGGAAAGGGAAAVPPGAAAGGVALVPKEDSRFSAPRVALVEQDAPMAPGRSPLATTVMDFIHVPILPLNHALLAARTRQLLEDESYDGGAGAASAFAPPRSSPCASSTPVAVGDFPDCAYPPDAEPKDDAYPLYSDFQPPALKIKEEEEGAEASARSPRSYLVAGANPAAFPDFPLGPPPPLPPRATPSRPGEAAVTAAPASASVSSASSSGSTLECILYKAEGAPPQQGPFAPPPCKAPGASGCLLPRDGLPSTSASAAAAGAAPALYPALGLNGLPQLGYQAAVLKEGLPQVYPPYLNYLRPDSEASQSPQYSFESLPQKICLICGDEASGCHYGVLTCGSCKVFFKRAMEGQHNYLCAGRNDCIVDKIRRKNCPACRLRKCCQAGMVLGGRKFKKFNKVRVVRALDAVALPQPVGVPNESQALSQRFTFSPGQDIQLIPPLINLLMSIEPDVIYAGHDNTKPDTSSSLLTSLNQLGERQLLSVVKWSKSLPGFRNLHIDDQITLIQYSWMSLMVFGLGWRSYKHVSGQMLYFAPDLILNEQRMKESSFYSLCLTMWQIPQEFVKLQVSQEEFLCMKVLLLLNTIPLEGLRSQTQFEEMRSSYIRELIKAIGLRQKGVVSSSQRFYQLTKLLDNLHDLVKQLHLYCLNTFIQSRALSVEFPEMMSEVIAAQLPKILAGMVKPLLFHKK

[9] = target: Sodium-dependent dopamine transporter (Homo sapiens, UniProt Q01959)
[10] = target: Mu-type opioid receptor (Homo sapiens, UniProt P35372)
[11] = target: T4, Amine oxidase [flavin-containing] A (Homo sapiens, UniProt P21397); assay type: functional
T4 sequence (P21397 whole entry): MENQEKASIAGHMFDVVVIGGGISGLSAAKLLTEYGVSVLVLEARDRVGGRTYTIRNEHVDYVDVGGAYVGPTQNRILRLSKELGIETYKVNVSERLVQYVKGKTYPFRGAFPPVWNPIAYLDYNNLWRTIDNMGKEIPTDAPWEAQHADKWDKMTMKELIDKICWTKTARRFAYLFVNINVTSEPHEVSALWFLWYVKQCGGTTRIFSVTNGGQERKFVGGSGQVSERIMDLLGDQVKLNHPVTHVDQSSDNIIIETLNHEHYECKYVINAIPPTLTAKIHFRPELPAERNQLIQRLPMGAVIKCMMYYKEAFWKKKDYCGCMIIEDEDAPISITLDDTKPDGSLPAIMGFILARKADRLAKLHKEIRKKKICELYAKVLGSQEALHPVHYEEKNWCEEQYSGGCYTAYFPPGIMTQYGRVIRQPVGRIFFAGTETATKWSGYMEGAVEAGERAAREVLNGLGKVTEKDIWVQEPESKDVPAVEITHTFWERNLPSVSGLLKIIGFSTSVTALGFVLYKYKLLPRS
Further: assay procedure not described here.

3',5'-cyclic-AMP phosphodiesterase 4D, sequence (Q08499 whole entry): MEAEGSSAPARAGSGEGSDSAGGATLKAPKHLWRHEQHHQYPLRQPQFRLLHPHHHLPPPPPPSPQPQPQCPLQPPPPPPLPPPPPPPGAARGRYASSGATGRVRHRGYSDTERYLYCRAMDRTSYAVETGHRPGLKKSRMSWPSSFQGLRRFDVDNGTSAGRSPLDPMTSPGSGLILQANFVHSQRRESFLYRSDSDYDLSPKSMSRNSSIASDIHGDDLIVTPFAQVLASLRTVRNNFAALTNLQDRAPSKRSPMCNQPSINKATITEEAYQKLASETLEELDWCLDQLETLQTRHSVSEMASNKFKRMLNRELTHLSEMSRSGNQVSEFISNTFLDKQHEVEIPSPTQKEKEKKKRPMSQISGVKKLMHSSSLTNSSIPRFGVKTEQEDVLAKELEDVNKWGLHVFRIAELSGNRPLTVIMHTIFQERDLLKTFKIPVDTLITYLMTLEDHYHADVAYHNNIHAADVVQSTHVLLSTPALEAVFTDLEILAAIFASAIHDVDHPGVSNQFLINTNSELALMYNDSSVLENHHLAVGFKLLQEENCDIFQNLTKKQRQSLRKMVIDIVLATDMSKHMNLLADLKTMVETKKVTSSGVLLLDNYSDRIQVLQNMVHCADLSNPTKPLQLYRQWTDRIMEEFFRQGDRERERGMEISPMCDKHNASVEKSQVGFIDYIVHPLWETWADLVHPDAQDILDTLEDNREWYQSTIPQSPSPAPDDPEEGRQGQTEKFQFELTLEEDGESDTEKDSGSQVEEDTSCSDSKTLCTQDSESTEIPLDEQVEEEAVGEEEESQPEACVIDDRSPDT
Vasopressin V2 receptor, sequence (P30518 whole entry): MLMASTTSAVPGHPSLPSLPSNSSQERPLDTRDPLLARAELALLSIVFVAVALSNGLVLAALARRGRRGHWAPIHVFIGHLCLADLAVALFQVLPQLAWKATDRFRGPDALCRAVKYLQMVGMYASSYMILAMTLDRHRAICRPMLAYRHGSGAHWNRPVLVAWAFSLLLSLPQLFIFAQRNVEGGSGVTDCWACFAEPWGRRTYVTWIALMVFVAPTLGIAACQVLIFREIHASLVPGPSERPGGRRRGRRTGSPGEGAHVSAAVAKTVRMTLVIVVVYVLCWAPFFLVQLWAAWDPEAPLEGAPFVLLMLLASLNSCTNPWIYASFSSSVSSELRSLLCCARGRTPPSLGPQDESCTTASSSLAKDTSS
Melanocortin receptor 4, sequence (P32245 whole entry): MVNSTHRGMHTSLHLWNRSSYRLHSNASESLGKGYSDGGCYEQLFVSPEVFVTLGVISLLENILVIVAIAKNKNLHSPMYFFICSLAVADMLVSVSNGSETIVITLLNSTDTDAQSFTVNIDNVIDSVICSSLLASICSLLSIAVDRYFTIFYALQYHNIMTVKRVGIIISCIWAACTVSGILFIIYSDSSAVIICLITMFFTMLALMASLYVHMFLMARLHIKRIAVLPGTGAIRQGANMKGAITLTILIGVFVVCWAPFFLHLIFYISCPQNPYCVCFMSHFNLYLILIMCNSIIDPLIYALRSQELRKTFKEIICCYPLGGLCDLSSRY
D(1A) dopamine receptor, sequence (P21728 whole entry): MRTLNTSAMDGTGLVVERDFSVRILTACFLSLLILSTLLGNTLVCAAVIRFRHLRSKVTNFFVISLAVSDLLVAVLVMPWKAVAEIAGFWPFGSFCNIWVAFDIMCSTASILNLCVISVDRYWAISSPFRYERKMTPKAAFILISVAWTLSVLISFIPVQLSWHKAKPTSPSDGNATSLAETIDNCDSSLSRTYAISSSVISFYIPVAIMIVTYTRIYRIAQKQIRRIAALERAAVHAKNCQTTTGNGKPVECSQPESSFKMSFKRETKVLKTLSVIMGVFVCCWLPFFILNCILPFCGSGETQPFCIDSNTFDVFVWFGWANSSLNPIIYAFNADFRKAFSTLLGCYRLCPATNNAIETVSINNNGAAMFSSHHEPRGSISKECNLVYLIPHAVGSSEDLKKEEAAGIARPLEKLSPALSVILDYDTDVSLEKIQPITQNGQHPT
Cannabinoid receptor 1, sequence (P21554 whole entry): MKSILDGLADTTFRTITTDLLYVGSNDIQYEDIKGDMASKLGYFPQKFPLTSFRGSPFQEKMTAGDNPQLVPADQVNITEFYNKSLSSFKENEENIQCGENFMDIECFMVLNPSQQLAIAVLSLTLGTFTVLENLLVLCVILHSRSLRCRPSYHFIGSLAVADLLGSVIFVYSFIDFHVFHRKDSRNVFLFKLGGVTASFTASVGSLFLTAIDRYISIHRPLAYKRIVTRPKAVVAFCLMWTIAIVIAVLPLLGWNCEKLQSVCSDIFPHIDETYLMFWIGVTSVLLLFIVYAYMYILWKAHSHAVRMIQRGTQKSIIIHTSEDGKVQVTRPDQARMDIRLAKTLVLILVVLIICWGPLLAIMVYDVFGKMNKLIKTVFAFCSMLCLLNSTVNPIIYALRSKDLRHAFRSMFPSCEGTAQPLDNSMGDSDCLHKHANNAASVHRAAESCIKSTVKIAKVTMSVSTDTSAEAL
Mu-type opioid receptor, sequence (P35372 whole entry): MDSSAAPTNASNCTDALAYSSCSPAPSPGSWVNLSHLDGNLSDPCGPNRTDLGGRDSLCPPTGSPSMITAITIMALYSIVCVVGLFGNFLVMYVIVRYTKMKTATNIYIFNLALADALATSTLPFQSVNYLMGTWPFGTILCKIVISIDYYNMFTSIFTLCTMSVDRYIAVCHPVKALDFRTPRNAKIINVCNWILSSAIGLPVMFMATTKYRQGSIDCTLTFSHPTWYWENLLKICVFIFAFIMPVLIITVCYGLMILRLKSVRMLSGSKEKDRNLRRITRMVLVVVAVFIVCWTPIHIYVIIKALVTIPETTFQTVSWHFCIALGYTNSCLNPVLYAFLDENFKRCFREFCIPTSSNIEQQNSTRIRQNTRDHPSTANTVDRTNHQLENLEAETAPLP
Sodium-dependent dopamine transporter, sequence (Q01959 whole entry): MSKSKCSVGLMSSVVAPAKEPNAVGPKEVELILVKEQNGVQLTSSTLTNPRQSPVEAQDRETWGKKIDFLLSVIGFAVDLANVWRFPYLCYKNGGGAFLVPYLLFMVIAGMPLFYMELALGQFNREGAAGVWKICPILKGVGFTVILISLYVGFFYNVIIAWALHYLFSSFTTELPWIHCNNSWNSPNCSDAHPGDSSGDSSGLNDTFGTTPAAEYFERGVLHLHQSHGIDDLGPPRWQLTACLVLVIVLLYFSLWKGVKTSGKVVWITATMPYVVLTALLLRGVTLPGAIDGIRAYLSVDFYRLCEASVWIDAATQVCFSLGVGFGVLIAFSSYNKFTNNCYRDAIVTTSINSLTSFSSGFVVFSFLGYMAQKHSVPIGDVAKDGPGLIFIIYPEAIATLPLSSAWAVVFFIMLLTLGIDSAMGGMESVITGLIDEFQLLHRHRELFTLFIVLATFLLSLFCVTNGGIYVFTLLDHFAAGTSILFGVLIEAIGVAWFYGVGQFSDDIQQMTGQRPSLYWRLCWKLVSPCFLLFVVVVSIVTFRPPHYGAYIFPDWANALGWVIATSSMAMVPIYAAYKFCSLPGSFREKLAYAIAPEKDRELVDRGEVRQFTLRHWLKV

Row | Compound | AC50 [1] [µM] | AC50 [2] [µM] | AC50 [3] [µM] | AC50 [4] [µM] | AC50 [5] [µM] | AC50 [6] [µM] | AC50 [7] [µM] | AC50 [8] [µM] | AC50 [9] [µM] | AC50 [10] [µM] | AC50 [11] [µM]
1 | CC(O)(CS(=O)(=O)c1ccc(F)cc1)C(=O)Nc1ccc(C#N)c(C(F)(F)F)c1 (stereo unspecified) [BICALUTAMIDE] | > 3 | > 30 | > 10 | > 10 | > 30 | > 30 | > 30 | > 30 | > 30 | > 10 | > 10
2 | CC(=O)O[C@]1(C(C)=O)CC[C@H]2[C@@H]3C=C(Cl)C4=CC(=O)[C@@H]5C[C@@H]5[C@]4(C)[C@H]3CC[C@@]21C [CYPROTERONE ACETATE] | > 3 | > 30 | > 10 | – | > 30 | > 30 | > 30 | – | > 30 | > 30 | > 10
3 | C[C@@H]1C[C@H]2[C@@H]3C[C@H](F)C4=CC(=O)C=C[C@]4(C)[C@@]3(F)[C@@H](O)C[C@]2(C)[C@@]1(OC(=O)c1ccco1)C(=O)SCF [FLUTICASONE FUROATE] | > 30 | > 10 | 16.3 | > 10 | > 10 | > 10 | > 30 | – | > 10 | > 30 | > 10
4 | Cc1ccccc1N1C(=O)c2cc(S(N)(=O)=O)c(Cl)cc2NC1C (stereo unspecified) [METOLAZONE] | – | > 10 | > 10 | > 10 | > 10 | > 10 | > 30 | > 10 | > 10 | > 30 | > 10
5 | O=C(O)c1cccnc1Nc1cccc(C(F)(F)F)c1 [NIFLUMIC ACID] | – | > 10 | > 10 | > 10 | > 10 | > 10 | > 30 | > 10 | > 10 | > 30 | > 10
6 | O=C1c2ccccc2C(=O)C1c1ccccc1 [PHENINDIONE] | – | > 10 | > 10 | > 10 | > 10 | > 10 | > 30 | > 10 | > 10 | > 30 | > 10
7 | COC(=O)[C@H]1[C@H]2C[C@@H]3c4[nH]c5cc(OC)ccc5c4CCN3C[C@H]2C[C@@H](OC(=O)c2cc(OC)c(OC)c(OC)c2)[C@@H]1OC [RESERPINE] | > 30 | > 10 | > 10 | > 10 | > 10 | > 10 | > 30 | > 10 | 13 | > 30 | > 30
8 | C[C@]12C=CC(=O)C=C1CC[C@@H]1[C@@H]2CC[C@]2(C)OC(=O)CC[C@@H]12 [TESTOLACTONE] | – | > 10 | > 10 | > 10 | > 10 | > 10 | > 30 | > 10 | > 10 | > 30 | > 10
